Patent US20250360171A1, “CHEMOGENETICALLY GATED ION CHANNELS AND USE THEREOF” (TECHNION RESEARCH & DEVELOPMENT FOUNDATION LIMITED, priority 2023, published 2025)

Columns and labels:
native CMs = experiment: Coculture model: native (wild type) CMs; assay type: cell-based, human; conditions: 2-5 nM
From the text: (§1) To further illustrate the potential of this technology a coculture model of wild type CMs and CMs engineered to express the compound channel was generated (FIG. 8). In this model, only the CMs in the CCS between the two wild-type CCSs express the compound channel that is responsive to CNO. Reentrant arrhythmias were induced that spanned the whole model. […] As such, the arrhythmia became relegated to a single side of the model. That is an arrhythmia with a core in one CCS (for example the right one) become relegate to just that CCS upon application of CNO, while the other (left) CCS remained unaffected. It was further shown that the left CCS could be electrically paced, and conduction was successful until the wave front reaches the unexcitable engineered CMs. […] Thus, it is clear that native CMs are unaffected by CNO, but the genetically engineered CMs can be robustly ‘silenced’ by the application of CNO at very low concentrations (2-5 nM). Further, arrhythmias are succinctly terminated as a result of this silencing. Upon washout normal electrical activity resumed in the engineered CMs.

[1] = tested on: cardiac cell sheets expressing SthK and Rm3D; experiment: Reentrant arrhythmia in cardiac cell sheets expressing SthK and Rm3D, optical mapping; assay type: cell-based, human
From the text: In order to express both the DREADD and the channel in the membrane of cardiomyocytes a vector encoding a single transcript was generated. The open reading frame for SthK was cloned downstream of the chicken B-actin promoter. Instead of a stop codon, at the end of SthK a P2A cleavable peptide was encoded followed by the Rm3D receptor in frame. The result is a reading frame (SEQ ID NO: 4) encoding an 874 amino acid construct (SEQ ID NO: 8) that is co-translationally cleaved near the end of the P2A peptide to produce separate SthK and Rm3D proteins from a single transcript.
Cardiac cell sheets (CCSs) were generated as a 2D tissue model from the transfected iPSC-CMs and the CCSs were loaded with an optical voltage-dependent dye and mapped using a high-speed EMCCD camera. […] Reentrant arrhythmias were induced by transient tachypacing, and the resultant arrhythmias were stable within the tissue (FIG. 7A). […] This was seen as an inability to excite the cells even with significant electrical stimulation. […] Furthermore, it was shown that a single washout of the drug led to rapid recovery of electrical excitability by electrical pacing (within 30-90 seconds of washout) and the spontaneous resumption of a normal rhythm (sinus) within 2-5 minutes, as would be expected after defibrillation/cardioversion (FIG. 7C). Thus, the arrythmias were successfully terminated upon application of CNO, and normal electrical activity returned almost immediately after washout.

[2] = tested on: CMs engineered to express the compound channel; experiment: Coculture model: engineered CCS between two wild-type CCSs, reentrant arrhythmia; assay type: cell-based, human; conditions: 5 nM
From the text: as §1

[3] = tested on: control (non-transplanted) rat hearts; experiment: Optical mapping of Langendorff-perfused control (non-transplanted) rat hearts; assay type: in vivo; conditions: four control hearts, 30 nM with adenosine
From the text: (§2) Finally, chemogenetic hiPSC-CMs were transplanted into rat hearts. After 7-10 days, hearts were harvested, perfused ex-vivo using a custom-made Langendorff apparatus and optically mapped. Bradycardia was induced using adenosine.

[4] = tested on: PSAM4-5HT3-hiPSC-CMs / control hiPSC-CMs co-culture; experiment: Co-culture of PSAM4-5HT3-cGFP-hiPSC-CMs beside control hiPSC-CMs, optical mapping; assay type: cell-based, human
Experimental: We next created a co-culture model where the PSAM4-5HT3-cGFP-hiPSC-CMs were seeded beside control hiPSC-CMs (FIG. 4A).
Next, it was tested whether this chemogenetic approach could suppress tissue automaticity and excitability when using higher concentrations of Varenicline (100 nM), as it did in single cells, albeit at lower concentration. This dosing discrepancy probably stems from the more limited drug diffusion and the presence of stronger electrotonic coupling (attenuating Varenicline-induced depolarization) at the tissue level.

[5] = tested on: control, non-transfected, hiPSC-CCSs; experiment: Optical mapping of control, non-transfected hiPSC-CCSs; assay type: cell-based, human; conditions: any dose
PSAM4-5HT3-hiPSC-CCS = experiment: Optical mapping of PSAM4-5HT3-hiPSC-CCS tissue model; assay type: cell-based, human; conditions: 5-30 nM
From the text: To assess the translational potential of these findings, a hiPSC-derived cardiac cell-sheet (hiPSC-CCS) tissue model generated from PSAM4-5HT3-hiPSC-CMs was utilized (FIG. 3A). […] This augmented automaticity was the result of Varenicline-induced depolarizing currents in pacemaker cells driving activity of the cultures.

PSAM4-5HT3-HC channel = molecular target: T1, PSAM4-5HT3-HC channel (Homo sapiens, UniProt P36544, L131G/M226I/Q139L/T225I/Y217F); experiment: Voltage-clamp / membrane potential recordings of PSAM4-5HT3-HC-expressing hiPSC-CMs; assay type: cell-based; conditions: for effect on Varenicline-induced depolarizing current: picrotoxin 100 uM, partial antagonist of 5HT3-IPD
T1 construct: expressed in transfected cells
From the text: The synthetic chemogenetic channel PSAM4-5HT3-HC was created by fusing a mutated α7-nicotinic acetylcholine receptor (PSAM4, engineered to bind the anti-smoking drug Varenicline at sub-therapeutic concentrations) with the ion pore-domain (IPD) of the serotonin receptor 3A (5HT3) with additional mutations made for high conductance (HC) (SEQ ID NO: 12). This molecule was disclosed in Magnus, et al., “Ultrapotent chemogenetics for research and potential clinical applications”, Science, 2019 April 12;364 (6436), hercin incorporated by reference in its entirety. This molecule has only ever been used in neurons; however, it was hypothesized that it could also be employed in other electrically active cells. Specifically, it was hypothesized that expressing this chemogenetic channel in cardiomyocytes would permit dose-dependent modulation of their excitable properties; with weak depolarizing currents leading to increased automaticity, and larger currents causing depolarization-induced electrical silencing.
To test these hypotheses, healthy-donor human induced pluripotent stem cells (hiPSCs) were transfected with a non-viral, randomly integrating, transposon to create a stably engineered line constitutively expressing the PSAM4-5HT3-HC channel together with cGFP (FIG. 1).

[6] = tested on: rat hearts transplanted with chemogenetic hiPSC-CMs; experiment: Optical mapping of Langendorff-perfused rat hearts engrafted with chemogenetic hiPSC-CMs; assay type: in vivo; conditions: 30 nM, adenosine-induced bradycardia, 7-10 days after transplantation, ex-vivo perfusion
From the text: as §2

[7] = tested on: control unmodified hiPSC-CMs; experiment: Patch-clamp of control unmodified hiPSC-CMs; assay type: cell-based, human
Experimental: At higher doses (10 nM), spontaneous generation of action potentials (Aps) ceased (FIG. 2B). This suppression of excitability likely results from the significant membrane diastolic depolarization (−64±7 mV to −10±4 mV; p<0.0001; FIG. 2C) due to the large Varenicline-induced inward current (−6.8±3.2 pA/pF; p<0.01; FIG. 2C).

T1 sequence (P36544 with tags, fused parts or gaps L131G/Q139L/Y217F/T225I/M226I): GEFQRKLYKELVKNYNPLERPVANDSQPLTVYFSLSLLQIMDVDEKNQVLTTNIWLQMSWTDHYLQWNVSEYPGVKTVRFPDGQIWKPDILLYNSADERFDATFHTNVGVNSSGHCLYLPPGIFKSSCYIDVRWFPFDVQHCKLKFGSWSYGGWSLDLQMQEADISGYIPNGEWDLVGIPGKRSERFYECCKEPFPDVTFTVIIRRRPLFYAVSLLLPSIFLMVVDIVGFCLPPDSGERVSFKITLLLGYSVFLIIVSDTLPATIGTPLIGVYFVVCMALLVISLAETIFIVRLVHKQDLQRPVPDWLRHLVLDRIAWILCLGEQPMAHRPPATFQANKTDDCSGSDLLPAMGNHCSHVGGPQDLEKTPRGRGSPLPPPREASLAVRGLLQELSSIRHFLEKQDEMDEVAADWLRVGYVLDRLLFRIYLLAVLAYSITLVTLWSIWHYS

In the case of C[N+]1([O-])CCN(C2=Nc3cc(Cl)ccc3Nc3ccccc32)CC1 [CNO, clozapine-N-oxide], the “effect on native CMs” value (native CMs) is reported as “unaffected”, the “electrical activity of the CCS” value ([1]; 2-5 nM) is reported as “rapid inactivation (silencing)” and the “termination of existing reentrant arrhythmias” value ([1]; 2-5 nM) is reported as “sufficient to completely terminate existing arrhythmias”. The “time to recovery of electrical excitability by electrical pacing after washout” value ([1]; single washout) was 30 to 90 s, the “time to spontaneous resumption of a normal rhythm (sinus) after washout” value ([1]; single washout) was 2 to 5 min and the “conduction of arrhythmia across engineered cells” value [2] was “could no longer cross the engineered cells”.
In the case of c1cnc2cc3c(cc2n1)[C@@H]1CNC[C@H]3C1 [Varenicline], the “shift in the activation pattern” value [3] is reported as “did not occur”, the “excitability of the region containing non-transfected cells” value ([4]; 100 nM) is reported as “retained its excitable properties” and the “spontaneous activity of the co-cultures” value ([4]; 100 nM) is reported as “significantly slowed”. The “electrical activity in the PSAM4-5HT3-hiPSC-CMs area” value ([4]; 100 nM, in some specimens) was “complete silencing of electrical activity”, the “origin of spontaneous activity (pacemaker area)” value ([4]; baseline origin in control tissue) was “shifted the pacemaker area to the PSAM4-5HT3-HC tissue” and the automaticity of co-culture ([4]; escalating doses) was “augmented automaticity in a dose-dependent manner”. For the same compound, the “increase of spontaneous rhythm over baseline” value ([4]; rhythm arising from the PSAM4-5HT3-hiPSC-CMs) was over 6 fold, the chronotropic effects [5] was “no chronotropic effects” and the “cultures' activation frequency” value (PSAM4-5HT3-hiPSC-CCS) was “dose-dependent increase”. The “spontaneous generation of action potentials” value (PSAM4-5HT3-HC channel; 10 nM) was “ceased”, the “membrane diastolic potential after Varenicline” value (PSAM4-5HT3-HC channel; depolarization from −64±7 mV, p<0.0001, 10 nM (FIG. 2)) was −10±4 mV and the Varenicline-induced inward current (PSAM4-5HT3-HC channel; p<0.01, FIG. 2C) was −6.8±3.2 pA/pF. For the same compound, the Varenicline-induced depolarizing currents (PSAM4-5HT3-HC channel; voltage-clamp, even at low concentrations (1 nM)) was “robust Varenicline-induced depolarizing currents”, the “hearts developing ectopic ventricular activity from area of cell transplantation” value [6] was “four out of five” and the “response to Varenicline” value [7] was “No response”.
For picrotoxin, the “effect on Varenicline-induced depolarizing current” value (PSAM4-5HT3-HC channel) was “suppressing the depolarizing current” and the “effect on Varenicline-induced depolarizing current” value (PSAM4-5HT3-HC channel; listed as Picrotoxin) was “partially reversed”.
